Measured values as given in ChEMBL document CHEMBL3992488, “Anticancer agents interacting with membrane glucose transporters” (Medchemcomm, 2016).
Changes are numbered by the printed parent chain.

What was measured:
[1] = molecular target: T1, Solute carrier family 2, facilitated glucose transporter member 4 (Mus musculus, UniProt P14142); assay: Inhibition of GLUT4 in mouse 3T3L1 cells assessed as reduction in insulin-stimulated 2-deoxy-D-[14C]glucose uptake; type: cell-based
T1 sequence (P14142 whole entry): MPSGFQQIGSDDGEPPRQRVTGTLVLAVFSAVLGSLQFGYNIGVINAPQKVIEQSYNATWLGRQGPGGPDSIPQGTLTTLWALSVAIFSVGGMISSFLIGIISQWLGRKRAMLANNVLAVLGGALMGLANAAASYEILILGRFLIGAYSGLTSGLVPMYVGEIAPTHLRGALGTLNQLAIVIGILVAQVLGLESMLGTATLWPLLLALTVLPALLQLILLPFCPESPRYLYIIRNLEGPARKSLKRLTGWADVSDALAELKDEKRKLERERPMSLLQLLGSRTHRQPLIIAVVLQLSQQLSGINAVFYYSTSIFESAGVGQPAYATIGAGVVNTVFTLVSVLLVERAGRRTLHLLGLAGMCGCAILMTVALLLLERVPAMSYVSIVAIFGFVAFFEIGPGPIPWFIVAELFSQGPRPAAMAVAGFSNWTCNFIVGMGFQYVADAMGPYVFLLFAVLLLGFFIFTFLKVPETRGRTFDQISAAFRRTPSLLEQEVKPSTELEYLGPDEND

[2] = molecular target: T2, Solute carrier family 2, facilitated glucose transporter member 1 (Homo sapiens, UniProt P11166); assay: Competitive inhibition of GLUT1 in human HL60 cells assessed as reduction in 2-[1,2-3H]deoxy-D-glucose uptake measured for 30 secs by double reciprocal plot analysis; type: cell-based
T2 sequence (P11166 whole entry): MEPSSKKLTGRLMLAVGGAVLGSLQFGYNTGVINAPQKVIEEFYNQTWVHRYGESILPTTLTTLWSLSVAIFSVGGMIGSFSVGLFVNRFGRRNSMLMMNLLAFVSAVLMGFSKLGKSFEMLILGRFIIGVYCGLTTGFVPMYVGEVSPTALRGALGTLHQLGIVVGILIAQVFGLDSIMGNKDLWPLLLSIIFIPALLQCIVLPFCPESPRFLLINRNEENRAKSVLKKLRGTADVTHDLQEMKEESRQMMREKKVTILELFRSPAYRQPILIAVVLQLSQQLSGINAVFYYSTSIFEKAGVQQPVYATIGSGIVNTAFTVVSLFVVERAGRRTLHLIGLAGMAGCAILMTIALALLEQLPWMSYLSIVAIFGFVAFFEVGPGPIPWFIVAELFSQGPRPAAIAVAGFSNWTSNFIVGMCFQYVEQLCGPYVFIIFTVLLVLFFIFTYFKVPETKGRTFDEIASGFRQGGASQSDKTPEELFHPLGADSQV

[3] = molecular target: T2, Solute carrier family 2, facilitated glucose transporter member 1; assay: Competitive inhibition of GLUT1 (unknown origin) expressed in CHO cells assessed as reduction in 2-[1,2-3H]deoxy-D-glucose uptake measured for 30 secs by double reciprocal plot analysis; type: cell-based
[4] = molecular target: T2, Solute carrier family 2, facilitated glucose transporter member 1; assay: Competitive inhibition of glucose displaceable binding of [4-3H]cytochalasin B to GLUT1 in human erythrocyte membranes after 10 mins by double reciprocal plot analysis; type: cell membranes
[5] = molecular target: T2, Solute carrier family 2, facilitated glucose transporter member 1; assay: Inhibition of GLUT1-mediated [14C]glucose uptake in human erythrocytes; type: cell-based
[6] = molecular target: T3, Solute carrier family 2, facilitated glucose transporter member 1 (Homo sapiens) (UniProt P11166); assay: Inhibition of GLUT1 in human HT1080 cells assessed as reduction in [3H]2-deoxy-D-glucose uptake at 10 uM preincubated for 30 mins followed by [3H]2-deoxy-D-glucose addition measured after 60 mins by microbeta scintillation counting method relative to control; type: cell-based
T3 sequence (whole entry): T2 sequence (P11166 whole entry)

[7] = molecular target: T1, Solute carrier family 2, facilitated glucose transporter member 4; assay: Competitive inhibition of GLUT4 in mouse 3T3L1 cells assessed as reduction in insulin-stimulated [3H]-2-deoxy-D-glucose uptake preincubated for 20 mins followed by measured for [3H]-2-deoxy-D-glucose addition measured after 1 to 10 mins by Lineweaver-Burk plot analysis; type: cell-based
[8] = molecular target: T4, Solute carrier family 2, facilitated glucose transporter member 2 (Homo sapiens, UniProt P11168); assay: Inhibition of human GLUT2 expressed in Xenopus laevis oocytes assessed as reduction in [3H] 2-deoxyglucose uptake by scintillation spectrometric method; type: cell-based
T4 sequence (P11168 whole entry): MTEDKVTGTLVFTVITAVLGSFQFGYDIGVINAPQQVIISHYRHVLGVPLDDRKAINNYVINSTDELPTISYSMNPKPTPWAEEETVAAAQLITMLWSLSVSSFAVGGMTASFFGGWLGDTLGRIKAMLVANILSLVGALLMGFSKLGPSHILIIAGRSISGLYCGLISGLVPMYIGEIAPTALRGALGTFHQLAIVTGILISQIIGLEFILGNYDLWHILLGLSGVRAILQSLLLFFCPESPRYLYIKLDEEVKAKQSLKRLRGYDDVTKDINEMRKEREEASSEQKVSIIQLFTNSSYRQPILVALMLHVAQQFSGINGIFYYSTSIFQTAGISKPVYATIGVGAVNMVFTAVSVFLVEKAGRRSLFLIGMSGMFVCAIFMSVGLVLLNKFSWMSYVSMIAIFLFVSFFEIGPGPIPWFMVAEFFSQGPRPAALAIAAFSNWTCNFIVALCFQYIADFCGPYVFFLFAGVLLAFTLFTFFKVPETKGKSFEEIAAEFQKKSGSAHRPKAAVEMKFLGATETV

[9] = molecular target: T4, Solute carrier family 2, facilitated glucose transporter member 2; assay: Inhibition of human GLUT2 expressed in Xenopus laevis oocytes assessed as reduction in [14C]fructose uptake by scintillation spectrometric method; type: cell-based
[10] = molecular target: T5, Solute carrier family 2, facilitated glucose transporter member 4 (Rattus norvegicus, UniProt P19357); assay: Competitive inhibition of GLUT4 in Wistar rat adipocytes assessed as reduction in insulin-stimulated 3-O-[3H]methyl-D-glucose uptake measured for 30 secs by Lineweaver-Burk plot analysis; type: cell-based
T5 sequence (P19357 whole entry): T1 sequence (P14142 whole entry) with D11E, R17Q, L208I, I218L, M273L, S316L, G320E, A379S, K467R, A482T

[11] = molecular target: T2, Solute carrier family 2, facilitated glucose transporter member 1; assay: Non-competitive inhibition of GLUT1-mediated facilitative uptake of [3H]-2-deoxy-D-glucose in human erythrocyte membranes; type: cell membranes
[12] = molecular target: T2, Solute carrier family 2, facilitated glucose transporter member 1; assay: Inhibition of GLUT1-mediated glucose uptake in human A549 cells assessed as reduction in ATP synthesis up to 30 mins in presence of mitochondrial function blocker antimycin A; type: cell-based
[13] = molecular target: T2, Solute carrier family 2, facilitated glucose transporter member 1; assay: Inhibition of GLUT1 (unknown origin)-mediated glucose uptake expressed in CHO-K1 cells assessed as reduction in ATP synthesis up to 30 mins in presence of mitochondrial function blocker antimycin A; type: cell-based
[14] = Inhibition of human LDH5
[15] = tested on: RCC4; assay: Growth inhibition of VHL-deficient human RCC4 cells by XTT assay; type: functional, cell-based
[16] = Inhibition of PI3K in human U937 cells assessed as reduction in GLUT4 translocation by measuring reduction in 2-[1,2-3H(N)]deoxy-D-glucose uptake after 3 mins by scintillation spectrometric method; type: cell-based; conditions: U-937
[17] = species: Mus musculus; assay: (§1) Inhibition of PI3K in mouse 3T3L1 cells assessed as reduction in insulin-stimulated GLUT4 translocation by measuring reduction in [1-14C]-2-deoxy-D-glucose uptake at 6 uM pretreated for 3 days followed by insulin stimulation for 10 mins and subsequent addition of [1-14C]-2-deoxy-D-glucose measured after 10 mins relative to control; type: cell-based
[18] = species: Homo sapiens; assay: as §1, with “human MCF7” for “mouse 3T3L1”, “100” for “6”, “15 mins” for “3 days”; type: cell-based
[19] = tested on: MCF7; assay: Cytotoxicity against human MCF7 cells assessed as growth inhibition at 100 uM after 24 hrs by CellTiter 96 AQueous Non-Radioactive assay relative to control; type: functional; conditions: MCF7, 24 h, read-out: GI

With O=c1c(-c2ccc(O)cc2)coc2cc(O)cc(O)c12 [GENISTEIN] the IC50 [1] was 20 µM, the Ki [2] was 7 µM and the Ki [3] was 7 µM. It also gave a Ki [4] of 7 µM.
CS(=O)(=O)O[C@H]1[C@H](O)[C@@H](O)C(O)O[C@@H]1CO (stereo partly specified) gave an IC50 [5] of 32000 µM.
In the case of CC(C)NC(=O)COc1cccc(-c2nc(Nc3ccc4[nH]ncc4c3)c3ccccc3n2)c1, the inhibition [6] is reported as > 90%.
With COc1cc([C@H]2Oc3cc([C@H]4Oc5cc(O)cc(O)c5C(=O)[C@@H]4O)ccc3O[C@@H]2CO)ccc1O [SILYBIN A] the Ki [7] was 60 µM.
With COc1cc([C@H]2Oc3cc(-c4oc5cc(O)cc(O)c5c(=O)c4O)ccc3O[C@@H]2CO)ccc1O the Ki [7] was 114 µM.
Work on O=c1c(O)c(-c2cc(O)c(O)c(O)c2)oc2cc(O)cc(O)c12 [MYRICETIN] yielded an IC50 [8] of 12 to 17 µM, an IC50 [9] of 12 to 17 µM and a Ki [10] of 33.5 µM.
In the case of CCOC(=O)[C@@]12CN(C(=O)OC(C)(C)C)CC=C1N(CCc1ccc(OC)c(OC)c1)C(=O)[C@H]2CC(=O)NCc1cccc2ccccc12, the Ki [11] is reported as 0.8 µM, the IC50 [12] is reported as 3 µM and the IC50 [13] is reported as 1 µM.
With COC(=O)c1cc2c(C(F)(F)F)cc(-c3ccccc3)cc2n1O the Ki [14] was 5.1 µM.
For O=C(CCCc1ccc(N(CCCl)CCCl)cc1)OC[C@H]1OC(O)[C@H](O)[C@@H](O)[C@@H]1O (stereo partly specified), the IC50 [5] was 65 µM.
CC(C)(C)c1ccc(S(=O)(=O)NCc2ccc(C(=O)Nc3cccnc3)cc2)cc1 showed an IC50 [15] of 7.9 µM.
In the case of O=C1C[C@@H](c2ccc(O)cc2)Oc2cc(O)cc(O)c21 [NARINGENIN], the IC50 [16] is reported as 50 µM, the inhibition [17] is reported as 20% and the inhibition [18] is reported as 50%. The inhibition of growth at 100 µM [19] was 20%.
